# In patent publication US20250108038A1 (priority 2023, published 2025):
# “And” between values parts separate entries of the source, which are not always exact repeats. Identical values can stand only once.
# Experiment: Pharmacokinetics after single oral administration to beagle dogs;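 on AUC0-inf of Compound A (as titled): compound A is measured in plasma as a metabolite of the dosed analog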;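 on AUC0-last of Compound A (as titled): compound A is measured in plasma as a metabolite of the dosed analog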;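 on T1/2 of Compound A (as titled): compound A is measured in plasma as a metabolite of the dosed analog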;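 on Tlast of Compound A (as titled): compound A is measured in plasma as a metabolite of the dosed analog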
# Type: in vivo
# Settings: for plasma concentration of Compound I-17/I-19: single PO 10 mg/kg; for plasma concentration of Compound I-17/I-19 (as titled): single PO 80 mg/kg (as titled)
# Procedure: The concentrations of the analytes in the plasma were quantified by liquid chromatography tandem mass spectrometry (LC-MS/MS).
# The bioanalytical assay provided a lower limit of quantification (LLOQ) of 1.0 ng/mL and an upper limit of quantification (ULOQ) of 3000 ng/mL for all the analytes. The data of plasma concentration vs. time were analyzed using Phoenix WinNonlin 8.3 to determine the PK properties of the analytes.
# The test articles were administered orally by gavage. The nominal dose volume was 5 mL/kg for both analogs.
# The observation included appearance, behavior, morbidity and mortality.
# Approximately 0.5 mL blood was collected at each scheduled time point from the peripheral veins.
# The plasma samples were placed in microcentrifuge tubes and stored at −70+10° C. until analysis.
# [1] = after single PO 10 mg/kg of Compound I-17/I-19, female individual
# [2] = after single PO 10 mg/kg of Compound I-17/I-19, female individual, 10 mg/kg
# [3] = after single PO 10 mg/kg of Compound I-17/I-19, female mean
# [4] = after single PO 10 mg/kg of Compound I-17/I-19, male individual, 10 mg/kg
# [5] = after single PO 10 mg/kg of Compound I-17/I-19, male mean
# [6] = after single PO 80 mg/kg (so in the source) of Compound I-17/I-19, female individual, 80 mg/kg
# [7] = after single PO 80 mg/kg (so in the source) of Compound I-17/I-19, female mean
# [8] = after single PO 80 mg/kg (so in the source) of Compound I-17/I-19, female mean, 80 mg/kg
# [9] = after single PO 80 mg/kg (so in the source) of Compound I-17/I-19, male individual
# [10] = after single PO 80 mg/kg (so in the source) of Compound I-17/I-19, male individual, 80 mg/kg
# [11] = after single PO 80 mg/kg (so in the source) of Compound I-17/I-19, male mean
# [12] = oral 10 mg/kg, female dogs, 10 mg/kg
smiles,measurement,setting,value
CC(C)/C=C/COC1(c2ccc(Cl)cc2)c2ccccc2C2=NCCN21 (stereo not shown) [Compound I-17],T1/2 of Compound A (as titled),[1],5.87 h
same,Tlast of Compound A (as titled),[1],24.0 h
same,AUC0-inf of Compound A (as titled),[2],756 ng·h/mL and 946 ng·h/mL
same,AUC0-last of Compound A (as titled),[2],736 ng·h/mL and 915 ng·h/mL
same,Cmax of Compound A (as titled),[2],293 ng/mL and 252 ng/mL
same,MRT0-inf of Compound A (as titled),[2],4.62 h and 5.07 h
same,MRT0-last of Compound A (as titled),[2],3.88 h and 4.14 h
same,T1/2 of Compound A (as titled),[2],6.33 h
same,Tmax of Compound A (as titled),[2],1.00 h and 2.00 h
same,AUC0-inf of Compound A (as titled),[3],851 ng·h/mL
same,AUC0-last of Compound A (as titled),[3],826 ng·h/mL
same,Cmax of Compound A (as titled),[3],272 ng/mL
same,MRT0-inf of Compound A (as titled),[3],4.84 h
same,MRT0-last of Compound A (as titled),[3],4.01 h
same,T1/2 of Compound A (as titled),[3],6.10 h
same,Tlast of Compound A (as titled),[3],24.0 h
same,Tmax of Compound A (as titled),[3],1.50 h
same,Tmax of Compound A (as titled),"after single PO 10 mg/kg of Compound I-17/I-19, male individual",1.00 h
same,AUC0-inf of Compound A (as titled),[4],229 ng·h/mL and 522 ng·h/mL
same,AUC0-last of Compound A (as titled),[4],209 ng·h/mL and 513 ng·h/mL
same,Cmax of Compound A (as titled),[4],89.0 ng/mL and 212 ng/mL
same,MRT0-inf of Compound A (as titled),[4],3.07 h and 3.86 h
same,MRT0-last of Compound A (as titled),[4],2.15 h and 3.33 h
same,T1/2 of Compound A (as titled),[4],3.08 h and 5.70 h
same,Tlast of Compound A (as titled),[4],8.00 h and 24.0 h
same,AUC0-inf of Compound A (as titled),[5],376 ng·h/mL
same,AUC0-last of Compound A (as titled),[5],361 ng·h/mL
same,Cmax of Compound A (as titled),[5],151 ng/mL
same,MRT0-inf of Compound A (as titled),[5],3.46 h
same,MRT0-last of Compound A (as titled),[5],2.74 h
same,T1/2 of Compound A (as titled),[5],4.39 h
same,Tlast of Compound A (as titled),[5],16.0 h
same,Tmax of Compound A (as titled),[5],1.00 h
same,T1/2 of Compound A,"after single PO 80 mg/kg (so in the source) of Compound I-17/I-19, female individual",24.0 h
same,Cmax of Compound A,[6],4.00 ng/mL and 2.00 ng/mL
same,MRT0-inf of Compound A,[6],0.989 h and 0.999 h
same,MRT0-last of Compound A,[6],11.2 h and 11.5 h
same,Tmax of Compound A,[6],7.07 h and 7.31 h
same,MRT0-inf of Compound A,[7],0.994 h
same,Tlast of Compound A,[7],323 h
same,AUC0-last of Compound A,[8],323 ng·h/mL
same,MRT0-last of Compound A,[8],11.3 h
same,Tlast of Compound A,[9],24.0 h
same,Tmax of Compound A,[9],2.00 h
same,AUC0-inf of Compound A,[10],278 ng·h/mL and 298 ng·h/mL
same,AUC0-last of Compound A,[10],258 ng·h/mL and 278 ng·h/mL
same,Cmax of Compound A,[10],25.9 ng/mL and 31.6 ng/mL
same,MRT0-inf of Compound A,[10],9.72 h and 9.19 h
same,MRT0-last of Compound A,[10],7.90 h and 7.43 h
same,T1/2 of Compound A,[10],6.33 h and 6.23 h
same,AUC0-inf of Compound A,[11],288 ng·h/mL
same,AUC0-last of Compound A,[11],268 ng·h/mL
same,Cmax of Compound A,[11],28.8 ng/mL
same,MRT0-inf of Compound A,[11],9.45 h
same,MRT0-last of Compound A,[11],7.66 h
same,T1/2 of Compound A,[11],6.28 h
same,Tlast of Compound A,[11],24.0 h
same,Tmax of Compound A,[11],2.00 h
same,Cmax of the analog (Compound I-17/I-19),"oral 10 mg/kg, female dogs",272 ng/mL
same,T1/2 of the analog (Compound I-17/I-19),"oral 10 mg/kg, female dogs",6.10 hours
same,Tmax of the analog (Compound I-17/I-19),"oral 10 mg/kg, female dogs",1.5 hour
same,AUC0-last of the analog (Compound I-17/I-19),[12],826 ng·h/mL and 836 ng·h/mL
same,MRT0-last of the analog (Compound I-17/I-19),[12],4.01 hours and 2.47 hours
same,Cmax of the analog (Compound I-17/I-19),"oral 10 mg/kg, male dogs",151 ng/mL
same,T1/2 of the analog (Compound I-17/I-19),"oral 10 mg/kg, male dogs",4.39 hours
same,Tmax of the analog (Compound I-17/I-19),"oral 10 mg/kg, male dogs",1 hour
same,MRT0-last of the analog (Compound I-17/I-19),"oral 10 mg/kg, male dogs, 10 mg/kg",2.74 hours and 2.30 hours
same,plasma concentration of Compound I-17/I-19,"0.500 h, female individual, 10 mg/kg",128 ng/mL and 106 ng/mL
same,plasma concentration of Compound I-17/I-19,"0.500 h, female mean",117 ng/mL
same,plasma concentration of Compound I-17/I-19,"0.500 h, male individual, 10 mg/kg",73.5 ng/mL and 176 ng/mL
same,plasma concentration of Compound I-17/I-19,"0.500 h, male mean",125 ng/mL
same,plasma concentration of Compound I-17/I-19,"1.00 h, female individual, 10 mg/kg",293 ng/mL and 236 ng/mL
same,plasma concentration of Compound I-17/I-19,"1.00 h, female mean",265 ng/mL
same,plasma concentration of Compound I-17/I-19,"1.00 h, male individual, 10 mg/kg",89.0 ng/mL and 212 ng/mL
same,plasma concentration of Compound I-17/I-19,"1.00 h, male mean",151 ng/mL
same,plasma concentration of Compound I-17/I-19,"2.00 h, female individual, 10 mg/kg",164 ng/mL and 252 ng/mL
same,plasma concentration of Compound I-17/I-19,"2.00 h, female mean",208 ng/mL
same,plasma concentration of Compound I-17/I-19,"2.00 h, male individual, 10 mg/kg",51.0 ng/mL and 101 ng/mL
same,plasma concentration of Compound I-17/I-19,"2.00 h, male mean",75.8 ng/mL
same,plasma concentration of Compound I-17/I-19,"4.00 h, female individual, 10 mg/kg",43.0 ng/mL and 77.4 ng/mL
same,plasma concentration of Compound I-17/I-19,"4.00 h, female mean",60.2 ng/mL
same,plasma concentration of Compound I-17/I-19,"4.00 h, male individual, 10 mg/kg",11.2 ng/mL and 26.5 ng/mL
same,plasma concentration of Compound I-17/I-19,"4.00 h, male mean",18.9 ng/mL
same,plasma concentration of Compound I-17/I-19,"6.00 h, female individual, 10 mg/kg",20.8 ng/mL and 28.2 ng/mL
same,plasma concentration of Compound I-17/I-19,"6.00 h, female mean",24.5 ng/mL
same,plasma concentration of Compound I-17/I-19,"6.00 h, male individual, 10 mg/kg",6.77 ng/mL and 10.2 ng/mL
same,plasma concentration of Compound I-17/I-19,"6.00 h, male mean",8.47 ng/mL
same,plasma concentration of Compound I-17/I-19,"8.00 h, female individual, 10 mg/kg",13.6 ng/mL and 15.0 ng/mL
same,plasma concentration of Compound I-17/I-19,"8.00 h, female mean",14.3 ng/mL
same,plasma concentration of Compound I-17/I-19,"8.00 h, male individual, 10 mg/kg",4.57 ng/mL and 8.39 ng/mL
same,plasma concentration of Compound I-17/I-19,"8.00 h, male mean",6.48 ng/mL
same,plasma concentration of Compound I-17/I-19,"24.0 h, female individual, 10 mg/kg",2.29 ng/mL and 3.32 ng/mL
same,plasma concentration of Compound I-17/I-19,"24.0 h, female mean",2.81 ng/mL
same,plasma concentration of Compound I-17/I-19,"24.0 h, male individual",1.16 ng/mL
same,plasma concentration of Compound I-17/I-19,"24.0 h, male individual, 10 mg/kg",BQL
same,plasma concentration of Compound I-17/I-19 (as titled),"0.500 h, female individual",5.44 ng/mL
same,plasma concentration of Compound I-17/I-19 (as titled),"0.500 h, female individual, 80 mg/kg",BQL
same,plasma concentration of Compound I-17/I-19 (as titled),"0.500 h, male individual, 80 mg/kg",7.45 ng/mL and 13.8 ng/mL
same,plasma concentration of Compound I-17/I-19 (as titled),"0.500 h, male mean",10.6 ng/mL
same,plasma concentration of Compound I-17/I-19 (as titled),"2.00 h, female individual, 80 mg/kg",33.0 ng/mL and 26.4 ng/mL
same,plasma concentration of Compound I-17/I-19 (as titled),"2.00 h, female mean",29.7 ng/mL
same,plasma concentration of Compound I-17/I-19 (as titled),"2.00 h, male individual, 80 mg/kg",25.9 ng/mL and 31.6 ng/mL
same,plasma concentration of Compound I-17/I-19 (as titled),"2.00 h, male mean",28.8 ng/mL
same,plasma concentration of Compound I-17/I-19 (as titled),"4.00 h, female individual, 80 mg/kg",35.5 ng/mL and 25.4 ng/mL
same,plasma concentration of Compound I-17/I-19 (as titled),"4.00 h, female mean",30.5 ng/mL
same,plasma concentration of Compound I-17/I-19 (as titled),"4.00 h, male individual, 80 mg/kg",25.6 ng/mL and 29.0 ng/mL
same,plasma concentration of Compound I-17/I-19 (as titled),"4.00 h, male mean",27.3 ng/mL
same,plasma concentration of Compound I-17/I-19 (as titled),"6.00 h, female individual, 80 mg/kg",22.9 ng/mL and 18.1 ng/mL
same,plasma concentration of Compound I-17/I-19 (as titled),"6.00 h, female mean",20.5 ng/mL
same,plasma concentration of Compound I-17/I-19 (as titled),"6.00 h, male individual, 80 mg/kg",14.2 ng/mL and 16.7 ng/mL
same,plasma concentration of Compound I-17/I-19 (as titled),"6.00 h, male mean",15.4 ng/mL
same,plasma concentration of Compound I-17/I-19 (as titled),"8.00 h, female individual, 80 mg/kg",21.8 ng/mL and 14.4 ng/mL
same,plasma concentration of Compound I-17/I-19 (as titled),"8.00 h, female mean",18.1 ng/mL
same,plasma concentration of Compound I-17/I-19 (as titled),"8.00 h, male individual, 80 mg/kg",14.9 ng/mL and 13.7 ng/mL
same,plasma concentration of Compound I-17/I-19 (as titled),"8.00 h, male mean",14.3 ng/mL
same,plasma concentration of Compound I-17/I-19 (as titled),"24.0 h, female individual, 80 mg/kg",4.17 ng/mL and 3.23 ng/mL
same,plasma concentration of Compound I-17/I-19 (as titled),"24.0 h, female mean",3.70 ng/mL
same,plasma concentration of Compound I-17/I-19 (as titled),"24.0 h, male individual, 80 mg/kg",2.20 ng/mL and 2.28 ng/mL
same,plasma concentration of Compound I-17/I-19 (as titled),"24.0 h, male mean",2.24 ng/mL
same,plasma concentration of Compound I-17/I-19 (as titled),"[…] h, female mean",15.9 ng/mL
same,plasma concentration of Compound I-17/I-19 (as titled),"[…] h, male mean",22.2 ng/mL
